{"source": "ChEMBL document CHEMBL4270552", "about": "“4-(Phenoxy) and 4-(benzyloxy)benzamides as potent and selective inhibitors of mono-ADP-ribosyltransferase PARP10/ARTD10” (Eur J Med Chem, 2018)", "target": "T1, Protein mono-ADP-ribosyltransferase PARP10 (Homo sapiens) (UniProt Q53GL7)", "T1 sequence (whole entry)": "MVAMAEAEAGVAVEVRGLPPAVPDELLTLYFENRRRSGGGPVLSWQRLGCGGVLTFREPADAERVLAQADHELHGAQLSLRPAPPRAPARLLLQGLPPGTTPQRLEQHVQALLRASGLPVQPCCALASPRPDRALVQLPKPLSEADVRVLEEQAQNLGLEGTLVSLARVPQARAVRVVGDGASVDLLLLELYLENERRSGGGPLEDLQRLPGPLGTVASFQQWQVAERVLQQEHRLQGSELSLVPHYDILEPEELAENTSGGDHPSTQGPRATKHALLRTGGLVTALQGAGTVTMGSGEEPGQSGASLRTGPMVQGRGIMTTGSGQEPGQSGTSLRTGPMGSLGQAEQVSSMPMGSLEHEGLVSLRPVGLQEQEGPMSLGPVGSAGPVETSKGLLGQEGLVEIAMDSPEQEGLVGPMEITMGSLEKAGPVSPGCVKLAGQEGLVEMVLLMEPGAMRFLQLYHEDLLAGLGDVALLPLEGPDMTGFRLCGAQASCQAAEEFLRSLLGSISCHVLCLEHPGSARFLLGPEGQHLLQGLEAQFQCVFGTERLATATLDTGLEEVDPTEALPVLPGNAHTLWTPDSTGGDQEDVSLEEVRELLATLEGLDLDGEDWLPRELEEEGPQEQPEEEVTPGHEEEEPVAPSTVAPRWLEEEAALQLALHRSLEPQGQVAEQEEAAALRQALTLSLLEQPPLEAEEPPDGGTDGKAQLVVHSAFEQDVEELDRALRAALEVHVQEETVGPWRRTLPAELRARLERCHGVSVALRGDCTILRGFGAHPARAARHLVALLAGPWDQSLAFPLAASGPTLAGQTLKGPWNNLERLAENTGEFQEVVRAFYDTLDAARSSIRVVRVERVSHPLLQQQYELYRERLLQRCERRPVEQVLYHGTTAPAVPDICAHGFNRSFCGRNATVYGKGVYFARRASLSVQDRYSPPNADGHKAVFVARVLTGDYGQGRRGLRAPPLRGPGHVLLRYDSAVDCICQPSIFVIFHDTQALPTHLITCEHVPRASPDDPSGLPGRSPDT", "conditions": "U2OS", "description": "Stabilization of ARTD10 in human U2OS cells assessed as increase in melting temperature at 10 uM by CESTA"}
{"molecule": "NC(=O)c1ccc(OCc2ccccc2F)cc1", "values": [{"measurement": "Tm", "value": "54 to 56", "unit": "°C"}]}
{"molecule": "NC(=O)c1ccc(Oc2ccc(C=O)cc2)cc1", "values": [{"measurement": "Tm", "value": "54 to 56", "unit": "°C"}]}
